Columns and labels:
Assay in all cases: Cell proliferation assay (Alamar Blue)
Format in all cases: cell-based
SNU387 = conditions: Homo sapiens, SNU-387, 144 h; SNU387 liver cancer cell line; 6 days
Description: (§1) 1. Instruments and Materials • Thermo 311 CO2 incubator; Haier biosafety cabinet; Molecular Devices microplate reader; Xiangyi brand L530 desktop low speed centrifuge; Olympus IX51 inverted fluorescence microscope, DMEM, RPMI 1640, MEM, DMEM/F12 1:1 medium, Fetal bovine serum, 0.25% trypsin solution, phosphate buffer (Thermo Fisher Shanghai Co., Ltd.); sigma dimethyl sulfoxide (DMSO), resazurin; 54 commercial tumor cell lines (including 26 liver cancer cell lines). Experimental drugs: compounds 1-12 and active drug Linifanib; chemotherapeutic drug Doxorubicin (HY-15142; Shanghai Qianyuan Biomedical Technology Co., Ltd.).
(§2) 2. Experimental Methods • 2.1 Cultivation of different cell lines • 54 cell lines were cultured in a culture medium containing fetal bovine serum and placed in a 5% CO 2 incubator at 37° C. for incubation. The cells were all grown in an adherent state, and the growth was observed under an inverted microscope, and subculture was performed when the cell confluence rate reached 80%-90%. The proportion and quantity of passage were determined by experimental needs. The ratio of subculture of this cell line was generally 1:2^˜1:3. • 2.2 inhibition effect on the proliferation of different tumor cell lines • Cell test: 54 cell lines in logarithmic growth phase were inoculated in 96-well culture plates at 500^˜1×10^4/well (the optimal seeding density of each cell line was determined in pre-experiment), After incubating at 37° C. for 4 h in a 5% CO2 humidification incubator, added 10 μL of compounds 1-12 or Linifanib to each well, and tested 9 drug concentration gradients for each compound (diluted from the highest concentration of the test by 3.16 times). The solubility of each compound was different at a starting concentration of 30 or 100 μM, respectively. The QC reference compound Doxorubicin was added simultaneously to each cell line test, and the final drug concentrations were 10, 3.16, 1, 0.31, 0.1, 0.03, 0.01, 0.003, and 0.001 μM, respectively. In addition, a positive control group (100% inhibition) and a negative control group (0% inhibition) were set at the same time. The drug group was repeated for 2 wells per concentration, and the positive control group and the negative control group were repeated for 6 wells. After the culture was continued for 6 days in the incubator, AlamarBlue test operation was followed; • AlamarBlue test procedure: Incubated with 10 μL of AlamarBlue reagent per well for 1-4 h, shook for 1-2 min, MD microplate reader EX: 560 nm, EM: 590 nm wavelength to measure fluorescence, recorded the results, calculated the cell inhibition rate of the compound of the invention. Cell inhibition rate (%)=(A0% inhibition−A administration)/(A0% inhibition−A100% inhibition)×100%, and then using the method of nonlinear regression using Graph Pad Prism 5.0 or MATILAB software (usually using four parameters) to graph and obtain a drug dose response curve to obtain an IC50 value of the compound of the present invention acting on a cancer cell line.

NCl-H716 = conditions: 144 h; NCl-H716 tumor cell line; 6 days
Description: as §1, §2

NCl-H1648 = conditions: 144 h; NCl-H1648 tumor cell line; 6 days
Description: as §1, §2

SNU354 = conditions: Homo sapiens, SNU-354, 144 h; SNU354 liver cancer cell line; 6 days
Description: as §1, §2

SK-HEP-1 = conditions: Homo sapiens, SK-HEP1, 144 h; SK-HEP-1 liver cancer cell line; 6 days
Description: as §1, §2

JHH4 = conditions: JHH-4, 144 h; JHH4 liver cancer cell line; 6 days
Description: as §1, §2

SNU761 = conditions: 144 h; SNU761 liver cancer cell line; 6 days
Description: as §1, §2

DU145 = conditions: Homo sapiens, DU-145, 144 h; DU145 tumor cell line; 6 days
Description: as §1, §2

DLD1 = conditions: Homo sapiens, DLD-1, 144 h; DLD1 tumor cell line; 6 days
Description: as §1, §2

MDA-MB-231 = conditions: Homo sapiens, 144 h; MDA-MB-231 tumor cell line; 6 days
Description: as §1, §2

HUH7 = conditions: Homo sapiens, Huh-7, 144 h; HUH7 liver cancer cell line; 6 days
Description: as §1, §2

Li-7 = conditions: 144 h; Li-7 liver cancer cell line; 6 days
Description: as §1, §2

SNU739 = conditions: SNU-739, 144 h; SNU739 liver cancer cell line; 6 days
Description: as §1, §2

AN3CA = conditions: Homo sapiens, AN3-CA, 144 h; AN3CA (endometrial cells); 6 days
Description: as §1, §2

JHH7 = conditions: 144 h; JHH7 liver cancer cell line; 6 days
Description: as §1, §2

HEPG2 = conditions: Homo sapiens, 144 h; HEPG2 liver cancer cell line; 6 days
Description: as §1, §2

NCl-H526 = conditions: 144 h; NCl-H526 tumor cell line; 6 days
Description: as §1, §2

HT1080 = conditions: Homo sapiens, HT-1080, 144 h; HT1080 tumor cell line; 6 days
Description: as §1, §2

JHH2 = conditions: JHH-2, 144 h; JHH2 liver cancer cell line; 6 days
Description: as §1, §2

22RV1 = conditions: Homo sapiens, 144 h; 22RV1 tumor cell line; 6 days
Description: as §1, §2

NCl-H2170 = conditions: 144 h; NCl-H2170 tumor cell line; 6 days
Description: as §1, §2

HT55 = conditions: Homo sapiens, 144 h; HT55 tumor cell line; 6 days
Description: as §1, §2

LNCAP-clone-FGC = conditions: Homo sapiens, 144 h; LNCAP-clone-FGC tumor cell line; 6 days
Description: as §1, §2

Cc1ccc(F)c(NC(=O)Nc2ccc(-c3cccc4c3c(N)nn4C(=O)CCCCCNC(=O)C[C@H](N)C(=O)N[C@@H](CCC(=O)N[C@@H](CCC(=O)N[C@@H](CCC(=O)N[C@@H](CCC(=O)O)C(=O)O)C(=O)O)C(=O)O)C(=O)O)cc2)c1 [Compound 5]
IC50 (SNU387): > 100 µM
IC50 (NCl-H716): 66.7 µM
IC50 (NCl-H1648): > 100 µM
IC50 (SNU354): > 100 µM
IC50 (SK-HEP-1): 85.1 µM
IC50 (JHH4): 60.3 µM
IC50 (SNU761): > 100 µM
IC50 (DU145): 55.4 µM
IC50 (DLD1): > 100 µM
IC50 (MDA-MB-231): > 100 µM
IC50 (HUH7): 77.9 µM
IC50 (Li-7): 59.1 µM
IC50 (SNU739): > 100 µM
IC50 (AN3CA): 45.6 µM
IC50 (JHH7): 57.8 µM
IC50 (HEPG2): 30.8 µM
IC50 (NCl-H526): > 100 µM
IC50 (HT1080): > 100 µM
IC50 (JHH2): > 100 µM
IC50 (22RV1): > 100 µM
IC50 (NCl-H2170): > 100 µM
IC50 (HT55): > 100 µM
IC50 (LNCAP-clone-FGC): > 100 µM
